Data from patent US20100035862A1, “NOVEL AZA-CYCLIC INDOLE-2-CARBOXAMIDES AND METHODS OF USE THEREOF” (ABBOTT LABORATORIES, priority 2008, published 2010).

Target: T1, human α4β2 (Homo sapiens, UniProt P17787+P43681)
T1 construct: expressed in transfected cells
Assay: Calcium flux assay (FLIPR) in HEK 293 cells expressing NNR subtype; potentiation of submaximal agonist response
Format: cell-based
Details: α4β2 PAM; response to submaximal agonist (EC20-30%) such as nicotine
Source text: One manner to characterize α4β2 PAM activity is by characterization in clonal cell lines (for example, human embryonic kidney 293 cells) expressing the human neuronal nicotinic acetylcholine receptor subtype α4β2, particularly by use of Fluorescent Image Plate Reader technology. Effects on calcium flux or membrane potential changes can be assessed. Such assays have been reported and further details for carrying out, the assays can be obtained in International Publication No. WO 2006/114400. Another method to identify and characterize allosteric modulator activity is by expressing the α4β2 subunits in Xenopus oocytes, and by measuring electrophysiological effects on ligand-evoked current responses as previously described in Curtis, L., et al., Molecular Pharmacology, 61: 127-135, 2002.
To determine the effectiveness of representative compounds of this invention as ligands for α4β2 PAM activity, the compounds of the invention can be evaluated according to the Calcium Flux Assay described below.
Calcium Flux Assays Using Cells Expressing NNR Subtypes
Human embryonic kidney (HEK) 293 cells stably expressing human α4β2 or (3β4 combinations are grown to confluency in 162 cm^2 tissue culture flasks in DMEM media supplemented with 10% FBS and 25 μg/mL zeocin and 200 μg/mL hygromycin B. Cells expressing rat or ferret subunits may also be used. For assessing α3* or α7* selectivity, IMR-32 cells may also be used. IMR-32 neuroblastoma cells (ATCC) are grown to confluency in 162 cm^2 tissue culture flasks in minimum essential media supplemented with 10% FBS and 1 mM sodium pyruvate, 1% non-essential amino acids and 1% antibiotic-antimycotic. For the calcium flux assay, c cells are then dissociated using cell dissociation buffer and 100-150 μL per well of 3.5×10^5 cells/mL cell suspension (˜50,000-100,000 cells/well) was plated into 96-well black plates (poly-D-lysine precoated) with clear bottom and maintained for 24-48 hours in a tissue culture incubator at 37° C. under an atmosphere of 5% CO2: 95% air. Other clonal cell lines or primary cell cultures that express endogenous α4* nicotinic receptors may also be used in this assay. Calcium flux was measured using calcium-3 assay kit (Molecular Devices, Sunnyvale, Calif.) or fluo-4 (Invitrogen). A stock solution of the dye was prepared by dissolving each vial supplied by the vendor in Hank's balanced-salt solution buffer (HBSS) or 150 mM NMDG, 20 mM calcium chloride containing 10 mM HEPES. The stock-solution was diluted 1:20 using a the same buffer before use. The growth media was removed from the cells. The cells were loaded with 100 μL of the dye per well and incubated at room temperature for up to one hour for HEK 293 clonal stable cell lines or 30 minutes-45 minutes at 37° C. for IMR-32 cells. Fluorescence measurements were read simultaneously from all the wells by a Fluorometic Imaging Plate Reader (FLIPR) at an excitation wavelength of 480 nm and an emission wavelength of 520 nm. Baseline fluorescence was measured for the first 6 seconds at which 3× concentrations of modulator/test compounds were added to the cell plate at 50 μL and incubated for five minutes. The fluorescence intensity was captured every second for the first 1 minute followed by every 5 seconds for an additional 4 minutes. This procedure was followed by 50 μL of 4× concentration of agonist and readings were taken for a period of 3-5 minutes as described above.
The ability of test compounds to positively modulate the response (i.e., increase the response) induced by a submaximal concentration of agonist (EC20-30%) such as nicotine is measured. Potentiation is measured based on peak fluorescence responses. by screening compounds at fixed concentrations or in a concentration-response manner to derive, EC50 values. The concentration dependence of changes in fluorescence responses is fitted by nonlinear regression analysis (GraphPad Prism, San Diego, Calif.) to obtain EC50 values. […]

T1 sequence (P43681 29-627 limits assumed): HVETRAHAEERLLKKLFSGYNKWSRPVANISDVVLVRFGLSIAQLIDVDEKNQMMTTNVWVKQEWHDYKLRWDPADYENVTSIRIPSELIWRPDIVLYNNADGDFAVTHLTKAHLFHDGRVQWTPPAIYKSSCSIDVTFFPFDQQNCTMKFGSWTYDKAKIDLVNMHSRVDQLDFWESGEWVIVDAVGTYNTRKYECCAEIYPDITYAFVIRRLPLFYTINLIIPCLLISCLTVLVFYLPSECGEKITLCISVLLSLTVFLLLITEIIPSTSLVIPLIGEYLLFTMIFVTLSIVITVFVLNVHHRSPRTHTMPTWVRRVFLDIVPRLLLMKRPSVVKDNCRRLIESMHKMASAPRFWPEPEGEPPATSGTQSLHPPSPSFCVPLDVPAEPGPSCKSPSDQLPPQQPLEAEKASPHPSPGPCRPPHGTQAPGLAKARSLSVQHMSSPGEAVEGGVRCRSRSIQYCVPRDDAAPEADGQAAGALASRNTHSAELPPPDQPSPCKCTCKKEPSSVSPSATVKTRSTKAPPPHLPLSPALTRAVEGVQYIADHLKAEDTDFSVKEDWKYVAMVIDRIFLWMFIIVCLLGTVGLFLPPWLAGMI
T1 sequence (P17787 26-502): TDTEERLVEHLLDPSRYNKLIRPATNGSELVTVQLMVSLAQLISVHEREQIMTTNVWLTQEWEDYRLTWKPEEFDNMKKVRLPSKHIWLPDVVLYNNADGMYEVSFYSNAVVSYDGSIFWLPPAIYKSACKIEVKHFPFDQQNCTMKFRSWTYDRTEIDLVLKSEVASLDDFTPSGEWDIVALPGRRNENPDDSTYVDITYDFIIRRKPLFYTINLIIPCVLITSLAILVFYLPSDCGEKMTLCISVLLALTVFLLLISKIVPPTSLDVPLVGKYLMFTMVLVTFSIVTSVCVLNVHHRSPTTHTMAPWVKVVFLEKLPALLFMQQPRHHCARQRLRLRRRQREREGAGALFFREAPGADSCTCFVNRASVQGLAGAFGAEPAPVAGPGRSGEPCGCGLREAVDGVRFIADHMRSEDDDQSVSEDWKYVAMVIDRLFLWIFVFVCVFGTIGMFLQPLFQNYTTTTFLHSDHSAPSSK

SMILES | Activity (allostertc effects—potentiation of fluorescence responses)
Cc1ccc(C)c2c(C)c(C(=O)N[C@@H]3CCNC3)[nH]c12 [Example 1, (R)-3,4,7-trimethyl-N-(pyrrolidin-3-yl)-1H-indole-2-carboxamide] | a (“a” denotes active compounds (>100%))
CC(C)(C)c1ccc2cc(C(=O)N[C@@H]3CCNC3)[nH]c2c1 [Example 10, (R)-6-tert-butyl-N-(pyrrolidin-3-yl)-1H-indole-2-carboxamide] | a (“a” denotes active compounds (>100%))
O=C(N[C@@H]1CCNC1)c1cc2ccc(-c3ccccc3)cc2[nH]1 [Example 13, (R)-6-phenyl-N-(pyrrolidin-3-yl)-1H-indole-2-carboxamide] | a (“a” denotes active compounds (>100%))
CN1CC[C@@H](NC(=O)c2cc3cc(Cl)ccc3[nH]2)C1 [Example 31] | a (“a” denotes active compounds (>100%))
CN1CC[C@H](NC(=O)c2cc3c(Cl)cc(Cl)cc3[nH]2)C1 [Example 40, (S)-4,6-dichloro-N-(1-methylpyrrolidin-3-yl)-1H-indole-2-carboxamide] | a (“a” denotes active compounds (>100%))
Cc1ccc(C)c2c(C)c(C(=O)N[C@@H]3CCCNC3)[nH]c12 [Example 108, (R)-3,4,7-trimethyl-N-(piperidin-3-yl)-1H-indole-2-carboxamide] | a (“a” denotes active compounds (>100%))
Cc1ccc(C)c2c(C)c(C(=O)N[C@@H]3CCCN(C)C3)[nH]c12.Cc1ccc(S(=O)(=O)O)cc1 [Example 109, (R)-3,4,7-trimethyl-N-(1-methylpiperidin-3-yl)-1H-indole-2-carboxamide tosylate] | a (“a” denotes active compounds (>100%))
O=C(N[C@@H]1CCCNC1)c1cc2c(Cl)cc(Cl)cc2[nH]1 [Example 114, (R)-4,6-dichloro-N-(piperidin-3-yl)-1H-indole-2-carboxamide] | a (“a” denotes active compounds (>100%))
